Patent US20260217765A1, “NOVEL ANTIMICROBIAL PEPTIDE DESIGNED FROM DUCK-DERIVED ANTIMICROBIAL PEPTIDE ANDUSE THEREOF” (INDUSTRY-ACADEMIC COOPERATION FOUNDATION, CHOSUN UNIVERSITY, priority 2023, published 2026)
≈ marks a conversion by molar mass, not a printed value. Peptide text beside a SMILES is read from it.

What was measured:
[1] = test system: Acinetobacter baumannii KCTC 1017; format: cell-based; settings: KCTC 1017
Text: (§1) To compare the antimicrobial activity of the peptides prepared in <Example 1>, the minimum inhibitory concentration (MIC), […] measured. Here, the minimal inhibitory concentration (MIC) refers to the lowest concentration of a substance that prevents visible bacterial growth.
(§2) Specifically, the bacterial strains listed in Table 2 below were obtained and cultured in media suitable for each strain until the mid-log phase. The cultures were then diluted to a concentration of 2×10^4 cells/100 μL and prepared in microtiter plates (Nunc, USA). Subsequently, serial 2-fold dilutions of the peptides prepared in Example 1 were prepared, and 10 μL of each dilution was added to the wells, and the plates were incubated at 37° C. for 18 hours. Absorbance at 600 nm was measured using a microtiter plate reader (Merck ELISA reader, Germany) to determine the MIC values for each bacterial strain. The parent peptide dCATH was used as a control.

[2] = test system: Bacillus cereus KCTC 2508; format: cell-based
Text: as §1, §2

[3] = test system: Pseudomonas aeruginosa ATCC 27853; format: cell-based
Text: as §1, §2

[4] = test system: Listeria monocytogenes KCTC 3710; format: cell-based
Text: as §1, §2

[5] = test system: Staphylococcus aureus ATCC 25923; format: cell-based; settings: ATCC 25923
Text: as §1, §2

[6] = test system: Escherichia coli ATCC 25922; format: cell-based
Text: as §1, §2

[7] = test system: Acinetobacter baumannii_isolate 14; format: cell-based, Acinetobacter baumannii; settings: isolate 14, 24 h
Protocol: (§3) Specifically, among the bacterial strains listed in Table 2, those known to form biofilms well (Acinetobacter baumannii KCTC 2508, Acinetobacter baumannii isolate 10, and isolate 14) were cultured in the appropriate media to the mid-log phase and diluted to a cell concentration of 5×10^4 cells/100 µL, followed by inoculation into microplates (SPL). Subsequently, the peptides prepared in <Example 1> were serially 10-fold diluted with 10 mM sodium phosphate buffer (pH 7.2), and 10 μL of each dilution was added to each well. The plates were then incubated at 37° C. for 24 hours. After completely removing the supernatant, the plates were fixed with 100% methanol for 15 minutes, stained with crystal violet staining solution for 1 hour, washed three times, and then the stain was solubilized with 95% ethanol. Absorbance was measured at 595 nm using a microplate reader to determine the MBIC values for each bacterial strain.

[8] = test system: Acinetobacter baumannii_isolate 10; format: cell-based, Acinetobacter baumannii; settings: isolate 10, 24 h
Protocol: as §3

[9] = test system: Acinetobacter baumannii_isolate 3 (antibiotic-resistant); format: cell-based, Acinetobacter baumannii; settings: isolate 3 (antibiotic-resistant)
Text: as §1, §2

[10] = test system: Acinetobacter baumannii_isolate 2 (antibiotic-resistant); format: cell-based, Acinetobacter baumannii; settings: isolate 2 (antibiotic-resistant)
Text: as §1, §2

[11] = test system: Acinetobacter baumannii_isolate 10 (antibiotic-resistant); format: cell-based, Acinetobacter baumannii; settings: isolate 10 (antibiotic-resistant)
Text: as §1, §2

[12] = test system: Acinetobacter baumannii_isolate15 (antibiotic-resistant); format: cell-based, Acinetobacter baumannii; settings: isolate15 (antibiotic-resistant)
Text: as §1, §2

[13] = test system: Acinetobacter baumannii_isolate 1 (antibiotic-resistant); format: cell-based, Acinetobacter baumannii; settings: isolate 1 (antibiotic-resistant)
Text: as §1, §2

[14] = test system: Acinetobacter baumannii_isolate 19 (antibiotic-resistant); format: cell-based, Acinetobacter baumannii; settings: isolate 19 (antibiotic-resistant)
Text: as §1, §2

[15] = test system: Acinetobacter baumannii_isolate 5 (antibiotic-resistant); format: cell-based, Acinetobacter baumannii; settings: isolate 5 (antibiotic-resistant)
Text: as §1, §2

[16] = test system: Acinetobacter baumannii_isolate11 (antibiotic-resistant); format: cell-based, Acinetobacter baumannii; settings: isolate11 (antibiotic-resistant)
Text: as §1, §2

[17] = test system: Acinetobacter baumannii_isolate 8 (antibiotic-resistant); format: cell-based, Acinetobacter baumannii; settings: isolate 8 (antibiotic-resistant)
Text: as §1, §2

[18] = test system: Acinetobacter baumannii_isolate 25 (antibiotic-resistant); format: cell-based, Acinetobacter baumannii; settings: isolate 25 (antibiotic-resistant)
Text: as §1, §2

[19] = test system: Acinetobacter baumannii_isolate 9 (antibiotic-resistant); format: cell-based, Acinetobacter baumannii; settings: isolate 9 (antibiotic-resistant)
Text: as §1, §2

[20] = test system: Acinetobacter baumannii_isolate20 (antibiotic-resistant); format: cell-based, Acinetobacter baumannii; settings: isolate20 (antibiotic-resistant)
Text: as §1, §2

[21] = test system: Acinetobacter baumannii_isolate16 (antibiotic-resistant); format: cell-based, Acinetobacter baumannii; settings: isolate16 (antibiotic-resistant)
Text: as §1, §2

[22] = test system: Acinetobacter baumannii_isolate 7 (antibiotic-resistant); format: cell-based, Acinetobacter baumannii; settings: isolate 7 (antibiotic-resistant)
Text: as §1, §2

[23] = in vitro; format: cell-based; settings: human, HaCaT keratinocyte cells, Cell Viability
Protocol: To evaluate the cytotoxicity of the peptides prepared in <Example 1>, toxicity was measured using a human keratinocyte cell line (HaCaT cell line, Dr. N. E. Fusenig, Heidelberg, Germany).
Specifically, HaCaT cells cultured in DMEM medium containing 10% fetal bovine serum (FBS) were seeded at a density of 2×10^5 cells/well into a microtiter plate and incubated for 24 hours. Then, peptides dCATH, dCATH-A1, dCATH-A2, dCATH-A3, dCATH-A4, dCATH-A5, dCATH-A6, and dCATH-A7 were added to each well at concentrations of 3.13, 6.25, 12.5, 25.0, 50.0, and 100.0 μM/well, followed by incubation for 24 hours in a 5% CO2 incubator. After 24 hours, 100 μL of a reaction solution containing 0.5 mg/mL MTT (Thiazolyl Blue Tetrazolium Bromide) dissolved in phosphate-buffered saline (PBS) was added to each well and reacted for 4 hours. After removing the supernatant, 200 μL of DMSO (dimethyl sulfoxide) was added to dissolve the formed MTT crystals, and absorbance at 570 nm was measured to determine cell viability.

Row | MIC [1] [µM] | MIC [2] [µM] | MIC [3] [µM] | MIC [4] [µM] | MIC [5] [µM] | MIC [6] [µM] | MIC [9] [µM] | MIC [10] [µM] | MIC [11] [µM] | MIC [12] [µM] | MIC [13] [µM] | MIC [14] [µM] | MIC [15] [µM] | MIC [16] [µM] | MIC [17] [µM] | MIC [18] [µM] | MIC [19] [µM] | MIC [20] [µM] | SMILES | MBIC [7] [µM] | MBIC [8] [µM] | other results
1 | 2 (≈ 5.26 µg/mL) | 1 (≈ 2.63 µg/mL) | 2 (≈ 5.26 µg/mL) | 2 (≈ 5.26 µg/mL) | 2 (≈ 5.26 µg/mL) | 2 (≈ 5.26 µg/mL) | 2 (≈ 5.26 µg/mL) | 2 (≈ 5.26 µg/mL) | 2 (≈ 5.26 µg/mL) | 2 (≈ 5.26 µg/mL) | 2 (≈ 5.26 µg/mL) | 2 (≈ 5.26 µg/mL) | 2 (≈ 5.26 µg/mL) | 2 (≈ 5.26 µg/mL) | 2 (≈ 5.26 µg/mL) | 2 (≈ 5.26 µg/mL) | 2 (≈ 5.26 µg/mL) | 2 (≈ 5.26 µg/mL) | CC[C@H](C)[C@H](NC(=O)[C@H](C)NC(=O)[C@H](CC(C)C)NC(=O)[C@@H]1CCCN1C(=O)[C@@H](NC(=O)[C@H](CC(C)C)NC(=O)[C@H](CCC(N)=O)NC(=O)[C@H](Cc1c[nH]c2ccccc12)NC(=O)[C@H](Cc1ccccc1)NC(=O)[C@H](CCCNC(=N)N)NC(=O)[C@@H](N)CCCCN)C(C)C)C(=O)N[C@@H](CCCCN)C(=O)N[C@H](C(=O)N[C@@H](Cc1ccc(O)cc1)C(=O)N[C@@H](CCCNC(=N)N)C(=O)N[C@@H](C)C(=O)N[C@@H](Cc1c[nH]c2ccccc12)C(=O)N[C@@H](CCCCN)C(=O)N[C@@H](CCCNC(=N)N)C(=O)N[C@@H](CCCNC(=N)N)C(N)=O)[C@@H](C)CC [dCATH, reference compound] (H-KRFWQLVPLAIKIYRAWKRR-NH2; N-terminus assumed) | 4 | 4 | MIC [21]: 2 µM (≈ 5.26 µg/mL); MIC [22]: 4 µM (≈ 10.5 µg/mL); viability at 24 h, 3.13 µM [23]: 100%; viability at 24 h, 6.25 µM [23]: 100%; viability at 24 h, 12.5 µM [23]: 75.3%; viability at 24 h, 25 µM [23]: 11.6%; viability at 24 h, 50 µM [23]: 2.51%
2 | 2 (≈ 5.1 µg/mL) | 2 (≈ 5.1 µg/mL) | 4 (≈ 10.2 µg/mL) | 2 (≈ 5.1 µg/mL) | 2 (≈ 5.1 µg/mL) | 2 (≈ 5.1 µg/mL) | 2 (≈ 5.1 µg/mL) | 2 (≈ 5.1 µg/mL) | 2 (≈ 5.1 µg/mL) | 2 (≈ 5.1 µg/mL) | 2 (≈ 5.1 µg/mL) | 1 (≈ 2.55 µg/mL) | 2 (≈ 5.1 µg/mL) | 2 (≈ 5.1 µg/mL) | 2 (≈ 5.1 µg/mL) | 2 (≈ 5.1 µg/mL) | 2 (≈ 5.1 µg/mL) | 1 (≈ 2.55 µg/mL) | CC[C@H](C)[C@H](NC(=O)[C@H](C)NC(=O)[C@H](CC(C)C)NC(=O)[C@@H]1CCCN1C(=O)[C@@H](NC(=O)[C@H](CC(C)C)NC(=O)[C@H](CCC(N)=O)NC(=O)[C@H](Cc1c[nH]c2ccccc12)NC(=O)[C@H](C)NC(=O)[C@H](CCCNC(=N)N)NC(=O)[C@@H](N)CCCCN)C(C)C)C(=O)N[C@@H](CCCCN)C(=O)N[C@H](C(=O)N[C@@H](Cc1ccc(O)cc1)C(=O)N[C@@H](CCCNC(=N)N)C(=O)N[C@@H](C)C(=O)N[C@@H](Cc1c[nH]c2ccccc12)C(=O)N[C@@H](CCCCN)C(=O)N[C@@H](CCCNC(=N)N)C(=O)N[C@@H](CCCNC(=N)N)C(N)=O)[C@@H](C)CC [dCATH-A1] (H-KRAWQLVPLAIKIYRAWKRR-NH2; N-terminus assumed) | 2 | 4 | MIC [21]: 2 µM (≈ 5.1 µg/mL); MIC [22]: 2 µM (≈ 5.1 µg/mL); viability at 24 h, 3.13 µM [23]: 100%; viability at 24 h, 6.25 µM [23]: 100%; viability at 24 h, 12.5 µM [23]: 97.9%; viability at 24 h, 25 µM [23]: 30%; viability at 24 h, 50 µM [23]: 0.81%; viability at 24 h, 100 µM [23]: 1.79%
